Measurements published in ChEMBL document CHEMBL2062393, “Drugs for stroke: action of nitrone (Z)-N-(2-bromo-5-hydroxy-4-methoxybenzylidene)-2-methylpropan-2-amine oxide on rat cortical neurons in culture subjected to oxygen-glucose-deprivation” (Eur J Med Chem, 2012).
The source made the active and inactive calls. The rule behind the calls is not given here.

Assays:
Assay type in all cases: functional
Cortical neurone [1] = test: Neuroprotective activity against Wistar rat Cortical neurons assessed as reduction of oxygen-glucose-deprivation-induced lipid peroxidation at 100 uM treated during reperfusion measured after 24 hrs by TBARS method
Cortical neurone [2] = test: Neuroprotective activity against Wistar rat Cortical neurons assessed as reduction of oxygen-glucose-deprivation-induced LDH release at 1 to 100 uM treated during reperfusion measured after 24 hrs
Cortical neurone [3] = test: Neuroprotective activity against Wistar rat Cortical neurons assessed as reduction of oxygen-glucose-deprivation-induced lipid peroxidation at 1 uM treated during reperfusion measured after 24 hrs by TBARS method
Cortical neurone [4] = test: Neuroprotective activity against Wistar rat Cortical neurons assessed as reduction of oxygen-glucose-deprivation-induced ROS production at 1 uM treated during reperfusion measured after 24 hrs by H2DCF-DA assay
Cortical neurone [5] = test: Neuroprotective activity against Wistar rat Cortical neurons assessed as reduction of oxygen-glucose-deprivation-induced mitochondrial membrane potential at 1 to 100 uM treated during reperfusion measured after 24 hrs by spectrofluorometer analysis
Cortical neurone [6] = test: Neuroprotective activity against Wistar rat Cortical neurons assessed as reduction of oxygen-glucose-deprivation-induced cell death at 100 uM treated during reperfusion measured after 24 hrs by XTT assay
Cortical neurone [7] = test: Neuroprotective activity against Wistar rat Cortical neurons assessed as reduction of oxygen-glucose-deprivation-induced caspase-3 activity at 1 to 100 uM treated during reperfusion measured after 24 hrs by spectrofluorometer analysis
Cortical neurone [8] = test: Neuroprotective activity against Wistar rat Cortical neurons assessed as reduction of oxygen-glucose-deprivation-induced cell death at 1 to 10 uM treated during reperfusion measured after 24 hrs by XTT assay

With `COc1cc(Br)c(/C=[N+](\[O-])C(C)(C)C)cc1O` the Activity (Cortical neurone [1]) was “inactive”, the Activity (Cortical neurone [2]) was “Active” and the Activity (Cortical neurone [3]) was “Active”. For the same compound, the Activity (Cortical neurone [4]) was “Active”, the Activity (Cortical neurone [5]) was “inactive” and the Activity (Cortical neurone [6]) was “Active”. The Activity (Cortical neurone [7]) was “Active” and the Activity (Cortical neurone [8]) was “inactive”.
